One compound from patent US11389423B2, “Pharmaceutical composition, excipient for the composition and use of the composition” (priority 2018, dated 2022) can be followed below.

The test system of this data set is male rabbits. Description: Blood pressure measurement and heart rate. The data set is classed as in vivo, New Zealand rabbits. The following applies: for heart rate: anesthetized male rabbits. The procedure:
Male New Zealand rabbits (n=6 per group) were used for pharmacological safety tests. All tests were performed orally (route recommended for humans) and the investigated parameters were determined after a single administration of CBD-SINT. CBD-SINT doses were determined by allometric extrapolation from the average dose used in human patients (25 mg/kg).
The dose of 51 mg/kg was used as the intermediate dose, stipulating a higher and a lower dose. Three dose ranges were used according to the Guide for Conducting Non-Clinical Toxicology and Pharmacological Safety Studies Necessary for Drug Development (ANVISA, 2013; Version 1.2). Thus, the doses used were 17, 51 and 170 mg/kg of CBD-SINT.
b) Blood pressure measurement, after a 6-h fasting, three doses of CBD-SINT (17, 51 and 170 mg/kg) were administered to different groups of male rabbits by gavage. Placebo was administered to the control group (1 mL/kg). 40 minutes after treatments all rabbits were anesthetized with 10 mg/kg diazepam intramuscularly combined with 115 mg/kg ketamine. Then, the animals received a bolus injection of heparin (50 IU) subcutaneously. Tracheostomy was performed to allow animals to breathe spontaneously. Then, the left carotid artery was isolated, cannulated, and connected to a pressure transducer coupled to a PowerLab recording system (Chart 5.0, ADI Instruments, Castle Hill, Australia). After 15 minutes for hemodynamic stabilization, systolic blood pressure (SBP), diastolic blood pressure (DBP) and mean arterial pressure (MAP) were recorded for another 20 min.

For the compound `C=C(C)[C@@H]1CCC(C)=C[C@H]1c1c(O)cc(CCCCC)cc1O` [CBD-SINT, Cannabidiol], the heart rate by setting is: (17 mg/kg oral) 285±18 bpm; (51 mg/kg oral) 279±20 bpm; (170 mg/kg oral) 275±17 bpm. Moreover, the “blood pressure levels (systolic, diastolic, mean arterial) compared to the control group” value (anesthetized male rabbits, 17, 51 or 170 mg/kg oral) was “did not significantly change”.
